In ChEMBL document CHEMBL1201862, “PubChem BioAssay data set” (2004):
Calls of active or inactive are those of the source.

Tests used:
[1] = enhancers of respiration in Yfh1-depleted yeast, dose response, Friedreich's ataxia, plus single-dose screen (AID 1465); type: functional;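 further: yeast depleted of Yfh1p frataxin homolog grown on glycerol needing respiration; WST-1 tetrazolium dye reduction as measure of cellular dehydrogenase metabolic activity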
[2] = cells
[3] = target: T1, E3 ubiquitin-protein ligase XIAP (Homo sapiens, UniProt P98170); assay: Counter Screen using XIAP-Bir3 for Chemical Antagonists of Bir1/2 domains of IAP-family anti-apoptotic proteins. [Related pubchem assays (depositor defined):AID1018, AID1449, AID1514, AID1638, AID1749, AID1750, AID488957, AID488963]
T1 sequence (P98170 whole entry): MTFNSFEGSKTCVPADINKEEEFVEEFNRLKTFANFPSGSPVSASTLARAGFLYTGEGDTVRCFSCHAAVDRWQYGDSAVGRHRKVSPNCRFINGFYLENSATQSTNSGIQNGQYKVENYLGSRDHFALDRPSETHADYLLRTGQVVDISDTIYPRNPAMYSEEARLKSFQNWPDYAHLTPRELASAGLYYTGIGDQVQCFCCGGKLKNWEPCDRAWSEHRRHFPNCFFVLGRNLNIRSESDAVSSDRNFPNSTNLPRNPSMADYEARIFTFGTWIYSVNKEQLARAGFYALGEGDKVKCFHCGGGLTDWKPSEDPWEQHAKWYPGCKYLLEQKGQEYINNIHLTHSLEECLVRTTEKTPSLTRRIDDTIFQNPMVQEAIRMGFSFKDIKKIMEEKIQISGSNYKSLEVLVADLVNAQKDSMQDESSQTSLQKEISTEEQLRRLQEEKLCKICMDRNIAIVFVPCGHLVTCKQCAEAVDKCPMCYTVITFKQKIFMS

[4] = target: T1, E3 ubiquitin-protein ligase XIAP; assay: XIAP antagonists, biochemical, IAP family, fluorescence polarization (AID 1018); type: functional
[5] = target: Cytochrome P450 2C9 (Homo sapiens, UniProt P11712)
Cytochrome P450 2C9, sequence (P11712 whole entry): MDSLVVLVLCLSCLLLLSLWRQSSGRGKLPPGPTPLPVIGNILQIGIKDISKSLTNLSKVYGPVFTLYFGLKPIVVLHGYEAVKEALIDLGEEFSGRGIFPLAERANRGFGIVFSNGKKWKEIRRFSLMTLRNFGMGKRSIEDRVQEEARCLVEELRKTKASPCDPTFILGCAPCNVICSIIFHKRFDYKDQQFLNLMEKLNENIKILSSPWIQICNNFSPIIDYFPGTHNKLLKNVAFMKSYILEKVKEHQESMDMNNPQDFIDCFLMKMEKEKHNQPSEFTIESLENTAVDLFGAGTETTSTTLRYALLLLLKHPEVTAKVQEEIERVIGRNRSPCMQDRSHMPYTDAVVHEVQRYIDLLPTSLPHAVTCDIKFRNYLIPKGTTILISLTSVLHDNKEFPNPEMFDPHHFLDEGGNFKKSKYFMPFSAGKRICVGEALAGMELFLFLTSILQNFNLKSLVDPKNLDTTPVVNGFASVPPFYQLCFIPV

[6] = target: Cytochrome P450 3A4 (Homo sapiens, UniProt P08684);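 further: CYP3A4 tested as one member of a cytochrome P450 panel screen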
Cytochrome P450 3A4, sequence (P08684 whole entry): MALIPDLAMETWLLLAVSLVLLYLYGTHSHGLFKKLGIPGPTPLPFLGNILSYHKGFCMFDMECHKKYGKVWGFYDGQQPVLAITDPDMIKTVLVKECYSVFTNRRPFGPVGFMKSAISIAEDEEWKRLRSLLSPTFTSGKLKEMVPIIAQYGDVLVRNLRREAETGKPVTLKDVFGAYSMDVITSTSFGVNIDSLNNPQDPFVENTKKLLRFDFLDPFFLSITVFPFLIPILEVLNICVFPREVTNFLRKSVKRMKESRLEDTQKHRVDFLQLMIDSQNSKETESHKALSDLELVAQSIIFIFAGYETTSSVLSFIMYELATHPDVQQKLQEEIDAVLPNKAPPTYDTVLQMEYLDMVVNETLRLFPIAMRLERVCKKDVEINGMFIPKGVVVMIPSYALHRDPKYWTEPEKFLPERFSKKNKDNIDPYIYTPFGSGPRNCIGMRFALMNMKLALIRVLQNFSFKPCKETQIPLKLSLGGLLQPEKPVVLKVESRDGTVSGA

[7] = target: G-protein coupled receptor 35 (Homo sapiens, UniProt Q9HC97); assay: GPR35 antagonists blocking zaprinast-driven arrestin recruitment, primary screen, imaging, U2OS, beta-arrestin-GFP, zaprinast agonist (AID 2058); type: functional;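 further: antagonist potency meaning inhibition of agonist-induced arrestin redistribution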
G-protein coupled receptor 35, sequence (Q9HC97 whole entry): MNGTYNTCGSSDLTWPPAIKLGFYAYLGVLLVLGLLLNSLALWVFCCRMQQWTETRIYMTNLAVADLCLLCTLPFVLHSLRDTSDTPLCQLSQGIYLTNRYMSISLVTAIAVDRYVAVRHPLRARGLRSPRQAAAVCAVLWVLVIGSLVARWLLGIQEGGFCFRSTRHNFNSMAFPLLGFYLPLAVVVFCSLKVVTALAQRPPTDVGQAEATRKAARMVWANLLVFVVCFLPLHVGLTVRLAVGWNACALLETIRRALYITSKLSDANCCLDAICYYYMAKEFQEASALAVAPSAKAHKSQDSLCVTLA

[8] = system: HEK293; assay: cells; type: functional, cell-based; conditions: Homo sapiens
[9] = target: T2, Nuclear receptor subfamily 0 group B member 1 (Homo sapiens, UniProt P51843); assay: Luminescence-based cell-based high throughput dose response assay for inhibitors of the orphan nuclear receptor subfamily 0, group B, member 1 (DAX1; NR0B1). [Related pubchem assays (depositor defined):AID504766, AID504790]; type: functional
T2 sequence (P51843 whole entry): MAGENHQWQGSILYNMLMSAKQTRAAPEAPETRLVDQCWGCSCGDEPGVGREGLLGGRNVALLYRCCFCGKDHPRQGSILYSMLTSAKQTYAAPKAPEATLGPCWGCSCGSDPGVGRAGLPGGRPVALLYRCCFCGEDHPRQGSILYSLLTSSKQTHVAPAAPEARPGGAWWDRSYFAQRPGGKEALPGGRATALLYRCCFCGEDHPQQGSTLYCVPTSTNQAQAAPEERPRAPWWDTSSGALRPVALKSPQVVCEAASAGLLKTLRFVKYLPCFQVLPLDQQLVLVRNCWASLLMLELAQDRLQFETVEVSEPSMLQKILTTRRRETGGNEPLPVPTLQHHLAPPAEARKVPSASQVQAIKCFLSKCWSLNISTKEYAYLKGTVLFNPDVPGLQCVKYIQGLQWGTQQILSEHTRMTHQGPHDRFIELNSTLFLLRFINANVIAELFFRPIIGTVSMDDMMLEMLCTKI

[10] = target: Intestinal-type alkaline phosphatase (Homo sapiens, UniProt P09923); assay: Dose Response confirmation of uHTS hits from a small molecule inhibitors of human intestinal alkaline phosphatase via a luminescent assay. [Related pubchem assays (depositor defined):AID2544, AID2574]; type: functional
Intestinal-type alkaline phosphatase, sequence (P09923 whole entry): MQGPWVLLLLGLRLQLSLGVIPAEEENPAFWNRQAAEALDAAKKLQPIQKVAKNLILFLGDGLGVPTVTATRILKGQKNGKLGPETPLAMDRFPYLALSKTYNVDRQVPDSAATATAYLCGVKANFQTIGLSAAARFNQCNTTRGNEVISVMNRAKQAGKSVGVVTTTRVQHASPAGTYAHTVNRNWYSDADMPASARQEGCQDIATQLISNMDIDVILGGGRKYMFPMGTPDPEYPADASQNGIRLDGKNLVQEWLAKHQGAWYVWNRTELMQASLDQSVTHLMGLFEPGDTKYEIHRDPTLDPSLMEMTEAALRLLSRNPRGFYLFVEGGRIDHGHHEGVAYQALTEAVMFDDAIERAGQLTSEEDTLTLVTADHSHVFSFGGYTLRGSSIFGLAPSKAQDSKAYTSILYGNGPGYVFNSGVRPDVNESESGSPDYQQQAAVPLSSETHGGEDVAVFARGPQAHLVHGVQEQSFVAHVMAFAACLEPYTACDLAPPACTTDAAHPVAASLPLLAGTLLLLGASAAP

[11] = target: T3, Ubiquitin-conjugating enzyme E2 N (Homo sapiens, UniProt P61088); type: functional;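 further: Dose-response confirmation in a TR-FRET assay detecting UBC13-driven polyubiquitin chain formation, inhibition measured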
T3 sequence (P61088 whole entry): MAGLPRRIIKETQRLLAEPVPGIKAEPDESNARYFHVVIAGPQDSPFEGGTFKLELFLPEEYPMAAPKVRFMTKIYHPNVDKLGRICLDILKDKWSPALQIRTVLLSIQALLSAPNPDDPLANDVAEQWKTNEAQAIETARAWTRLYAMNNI

[12] = Luminescence Cell-Based Dose Retest to Confirm Inhibitors of Cancer Stem Cells. [Related pubchem assays (depositor defined):AID2717, AID2721]; type: functional; conditions: Homo sapiens
[13] = system: INS1; assay: beta cell apoptosis inhibitors, cytokine rescue, dose response, luminescence, retest (AID 449756); type: functional, cell-based; conditions: Rattus norvegicus;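 further: cell death triggered by IL-1 beta plus TNF-alpha plus IFN-gamma mixture; protective hits raise ATP signal compared with cytokine alone wells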
[14] = target: Neurotensin receptor type 1 (Homo sapiens, UniProt P30989); type: functional;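 further: Image-based confirmatory dose-response assay measuring agonist activity at NTR1; NTR1-expressing U2OS osteosarcoma cells imaged for beta-arrestin GFP spot formation; agonist potency where compounds increase beta-arrestin recruitment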
Neurotensin receptor type 1, sequence (P30989 whole entry): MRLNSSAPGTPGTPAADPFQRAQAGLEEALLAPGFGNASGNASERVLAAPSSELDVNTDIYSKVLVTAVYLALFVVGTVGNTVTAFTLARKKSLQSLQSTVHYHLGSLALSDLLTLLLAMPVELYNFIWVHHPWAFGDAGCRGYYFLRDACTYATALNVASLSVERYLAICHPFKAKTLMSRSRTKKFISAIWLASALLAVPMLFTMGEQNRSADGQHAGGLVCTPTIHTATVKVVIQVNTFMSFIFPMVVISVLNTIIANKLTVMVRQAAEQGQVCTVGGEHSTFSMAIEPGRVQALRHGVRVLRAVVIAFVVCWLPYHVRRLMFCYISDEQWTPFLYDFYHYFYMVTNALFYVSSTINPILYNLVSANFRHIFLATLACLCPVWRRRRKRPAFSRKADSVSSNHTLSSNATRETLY

[15] = cells; type: functional
[16] = THP-1 cell cytotoxicity, dose response, cytotoxicity control for non-replicating M. tuberculosis project (AID 489025); type: functional
[17] = target: T4, C-C chemokine receptor type 6 (Homo sapiens, UniProt P51684); assay: CCR6 receptor antagonists, dose response, cell-based, luminescent beta-arrestin readout (AID 504728); type: functional
T4 sequence (P51684 whole entry): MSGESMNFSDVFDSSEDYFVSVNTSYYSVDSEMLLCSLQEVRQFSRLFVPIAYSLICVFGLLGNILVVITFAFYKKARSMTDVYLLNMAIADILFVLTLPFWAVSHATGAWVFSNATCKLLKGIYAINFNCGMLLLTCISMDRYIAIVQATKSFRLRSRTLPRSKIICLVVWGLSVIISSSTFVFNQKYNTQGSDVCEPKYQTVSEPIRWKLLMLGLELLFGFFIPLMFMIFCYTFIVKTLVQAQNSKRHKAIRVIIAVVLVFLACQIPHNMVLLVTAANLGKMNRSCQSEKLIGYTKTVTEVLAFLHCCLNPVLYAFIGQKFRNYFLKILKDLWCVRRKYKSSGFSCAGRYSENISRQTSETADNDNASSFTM

[18] = target: Beta-galactosidase (Escherichia coli, UniProt Q8VNN2); assay: beta-galactosidase enzyme inhibitors and activators, dose response, artefact control for CCR6 antagonist project, biochemical, E. coli enzyme, set 3 (AID 504712); type: functional
Beta-galactosidase, sequence (Q8VNN2 whole entry): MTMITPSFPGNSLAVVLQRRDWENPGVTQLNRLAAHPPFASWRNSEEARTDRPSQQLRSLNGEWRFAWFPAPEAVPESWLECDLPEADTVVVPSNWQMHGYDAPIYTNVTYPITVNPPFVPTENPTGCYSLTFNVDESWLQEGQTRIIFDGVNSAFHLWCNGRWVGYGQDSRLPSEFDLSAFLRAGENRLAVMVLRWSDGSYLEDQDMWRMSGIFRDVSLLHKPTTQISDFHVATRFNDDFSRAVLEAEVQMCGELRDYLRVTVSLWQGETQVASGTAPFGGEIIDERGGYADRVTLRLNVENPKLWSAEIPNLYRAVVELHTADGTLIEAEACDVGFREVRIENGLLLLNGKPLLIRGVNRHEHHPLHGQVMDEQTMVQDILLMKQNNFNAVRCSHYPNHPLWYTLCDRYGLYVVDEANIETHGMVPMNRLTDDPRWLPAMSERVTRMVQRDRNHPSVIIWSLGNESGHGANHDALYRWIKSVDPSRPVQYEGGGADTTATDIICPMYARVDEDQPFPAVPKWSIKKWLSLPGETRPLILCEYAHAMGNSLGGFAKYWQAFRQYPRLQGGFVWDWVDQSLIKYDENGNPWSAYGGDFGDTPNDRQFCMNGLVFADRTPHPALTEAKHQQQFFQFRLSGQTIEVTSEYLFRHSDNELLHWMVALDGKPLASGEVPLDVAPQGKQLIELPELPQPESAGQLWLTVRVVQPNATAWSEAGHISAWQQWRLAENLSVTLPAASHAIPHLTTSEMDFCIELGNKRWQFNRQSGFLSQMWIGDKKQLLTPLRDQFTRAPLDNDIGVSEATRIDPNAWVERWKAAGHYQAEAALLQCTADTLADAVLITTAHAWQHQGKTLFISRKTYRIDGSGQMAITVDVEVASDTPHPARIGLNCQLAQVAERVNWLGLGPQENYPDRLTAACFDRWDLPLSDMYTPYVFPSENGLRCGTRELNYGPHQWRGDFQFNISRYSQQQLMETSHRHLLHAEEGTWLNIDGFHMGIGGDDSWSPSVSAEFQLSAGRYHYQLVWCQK

## N#C/C(=C/c1ccc(N2CCOCC2)o1)C(=O)N1CCOCC1
[1]
  EC50: > 100 µM (active)

## CCOC(=O)c1ccc2[nH]c3c(c2c1)CN(C)CC3
[2]
  IC50: 1.22 µM (active)

## COc1ccccc1C1SCCN1S(=O)(=O)c1cccc(C(F)(F)F)c1 (centres undefined)
[3]
  IC50: > 100 µM (inactive)
[4]
  IC50: > 100 µM (not active)

## CC(C)NC(=O)N1CCC2(CC1)CCN(C(=O)c1cc(C(F)(F)F)cc(C(F)(F)F)c1)CC2
[5]
  AC50: inconclusive
[6]
  AC50: inconclusive

## CS(=O)(=O)N1N=C(c2ccccc2)CC1c1ccc2c(c1)OCO2 (centres undefined)
[7]
  IC50: 1.42 µM (active)

## Cn1c(NCc2ccccc2Cl)nc2ccccc21
[8]
  IC50: > 67.6 µM (inactive)
[9]
  IC50: > 67.6 µM (inactive)

## COc1ccccc1C1CN(c2ccccc2)N=C1c1cccs1 (centres undefined)
[10]
  IC50: > 100 µM (inactive)

## CN(CCO)c1cc(N2CCC3(CC2)OCCO3)c2nonc2c1[N+](=O)[O-]
[1]
  EC50: > 100 µM (active)

## COC(=O)C1=C(C)N(Cc2ccccc2)C(NCc2ccccc2)=N[C@H]1c1cccc(C(F)(F)F)c1
[11]
  IC50: > 20 µM (inactive)
[12]
  AC50: 3.27 µM (active)
[13]
  AC50: 8.05 µM (active)
[14]
  EC50: 13.7 µM (active)

## CC1=C(/C=C/C(C)=N\NC(=O)c2ccncc2)C(C)(C)CCC1
[15]
  IC50: 0.61 µM (active)
[16]
  CC50: > 40 µM (active)
[17]
  IC50: > 66.6 µM (inactive)
[18]
  IC50: > 66.6 µM (inactive)
